Assay results reported in US5561139A, “Substituted alicyclic-aliphatic amine-containing macrocyclic immunomodulators” (Abbott Laboratories, priority 1995, dated 1996).

System: human mixed lymphocyte reaction (MLR)
Experiment: human mixed lymphocyte reaction (MLR) assay, immunosuppressant activity
Type: cell-based
Details: Table 1
Method: Example 68; In Vitro Assay of Biological Activity
The immunosuppressant activity of the compounds of the present invention was determined using the human mixed lymphocyte reaction (MLR) assay described by Kino, T. et al. in Transplantation Proceedings XIX(5);36-39, Suppl. 6 (1987), incorporated herein by reference.

Compound | IC50 [nM]
CC[C@@H]1/C=C(\C)C[C@H](C)C[C@H](OC)[C@H]2O[C@@](O)(C(=O)C(=O)N3CCCC[C@H]3C(=O)O[C@H](/C(C)=C/[C@@H]3CC[C@H](NCCN4CCOCC4)[C@H](OC)C3)[C@H](C)[C@@H](O)CC1=O)[C@H](C)C[C@@H]2OC [Example 5] | < 1000
CC[C@@H]1/C=C(\C)C[C@H](C)C[C@H](OC)[C@H]2O[C@@](O)(C(=O)C(=O)N3CCCC[C@H]3C(=O)O[C@H](/C(C)=C/[C@@H]3CC[C@H](NC4CCN(Cc5ccccc5)CC4)[C@H](OC)C3)[C@H](C)[C@@H](O)CC1=O)[C@H](C)C[C@@H]2OC [Example 8] | < 1000
CC[C@@H]1/C=C(\C)C[C@H](C)C[C@H](OC)[C@H]2O[C@@](O)(C(=O)C(=O)N3CCCC[C@H]3C(=O)O[C@H](/C(C)=C/[C@@H]3CC[C@H](NCCCN4CCCCC4)[C@H](OC)C3)[C@H](C)[C@@H](O)CC1=O)[C@H](C)C[C@@H]2OC [Example 9] | < 1000
CC[C@@H]1/C=C(\C)C[C@H](C)C[C@H](OC)[C@H]2O[C@@](O)(C(=O)C(=O)N3CCCC[C@H]3C(=O)O[C@H](/C(C)=C/[C@@H]3CC[C@H](NCCCN4CCN(C)CC4)[C@H](OC)C3)[C@H](C)[C@@H](O)CC1=O)[C@H](C)C[C@@H]2OC [Example 12] | < 1000
CC[C@@H]1/C=C(\C)C[C@H](C)C[C@H](OC)[C@H]2O[C@@](O)(C(=O)C(=O)N3CCCC[C@H]3C(=O)O[C@H](/C(C)=C/[C@@H]3CC[C@H](NCCCN4CCOCC4)[C@H](OC)C3)[C@H](C)[C@@H](O)CC1=O)[C@H](C)C[C@@H]2OC [Example 17] | < 1000
CC[C@@H]1/C=C(\C)C[C@H](C)C[C@H](OC)[C@H]2O[C@@](O)(C(=O)C(=O)N3CCCC[C@H]3C(=O)O[C@H](/C(C)=C/[C@@H]3CC[C@H](NCCN4CCNCC4)[C@H](OC)C3)[C@H](C)[C@@H](O)CC1=O)[C@H](C)C[C@@H]2OC [Example 18] | < 1000
CC[C@@H]1/C=C(\C)C[C@H](C)C[C@H](OC)[C@H]2O[C@@](O)(C(=O)C(=O)N3CCCC[C@H]3C(=O)O[C@H](/C(C)=C/[C@@H]3CC[C@H](NCCN4CCCC4)[C@H](OC)C3)[C@H](C)[C@@H](O)CC1=O)[C@H](C)C[C@@H]2OC [Example 19] | < 1000
CC[C@@H]1/C=C(\C)C[C@H](C)C[C@H](OC)[C@H]2O[C@@](O)(C(=O)C(=O)N3CCCC[C@H]3C(=O)O[C@H](/C(C)=C/[C@@H]3CC[C@H](N(CCO)CCN4CCOCC4)[C@H](OC)C3)[C@H](C)[C@@H](O)CC1=O)[C@H](C)C[C@@H]2OC [Example 30] | < 1000
CC[C@@H]1/C=C(\C)C[C@H](C)C[C@H](OC)[C@H]2O[C@@](O)(C(=O)C(=O)N3CCCC[C@H]3C(=O)O[C@H](/C(C)=C/[C@@H]3CC[C@@H](NCCCN4CCCCC4)[C@H](OC)C3)[C@H](C)[C@@H](O)CC1=O)[C@H](C)C[C@@H]2OC [Example 47] | < 1000
